In assay [1] the test system is INA-6, U266 and HEL cells. In words: Annexin V/PI flow cytometry in STAT3-dependent cancer cells. The format is cell-based. Conditions: INA-6 15 μM 24 hours; U266 and HEL 20 μM 48 hours. On the procedure: Annexin V/PI staining was performed using Annexin V:FITC Apoptosis Detection Kit I (BD Biosciences). Staining for cell cycle analysis was performed as previously described (267). Staining for cell-surface receptors was performed in 50 μl PBS+2% FBS with 2 μl antibody to IL6R (BioLegend #352803) or 5 μl antibody to gp130 (BD Biosciences #555757) for 20 minutes on ice in the dark. Cells were washed twice, then resuspended in 300 μl of the same buffer. Samples were analyzed on a BD FACSCanto II machine. Transfection and siRNA Cells were reverse-transfected using Lipofectamine RNAiMAX (Invitrogen); the culture medium was changed 24 hours later. Control siRNA (D-001210-02) and REDD1 siRNA (M-010855-01) were from Thermo Scientific Dharmacon.
Next, the effect of atovaquone on the growth and survival of STAT3-dependent cancer cells was examined Survival of the multiple myeloma cell line INA-6 is exquisitely dependent on IL-6 added to culture medium and resultant STAT3 activation. […] The other cell lines with constitutively-active STAT3, U266 and HEL, were also killed by atovaquone.
For orientation: In flow cytometry, cells or beads pass a laser one at a time.

In assay [2] the test system is JAK family members. Nature of the assay: In vitro kinase assays (Invitrogen SelectScreen). The format is biochemical. Conditions: atovaquone 15 μM. On the procedure:
FIG. 15 contains a bar graph quantifying kinase activity (expressed as percent of vehicle) for the indicated kinases (JAK1, JAK2, JAK3, TYK2, SRC) determined using in vitro kinase assays (Invitrogen SelectScreen) and following treatment with atovaquone (AQ) (15 μM) or JAK inhibitor 1 (0.5 μM).
To understand how atovaquone inhibits STAT3 phosphorylation, the possibility that atovaquone decreases the kinase activity of JAKs, which are responsible for STAT3 activation in the systems previously tested was considered. To assess kinase activity, the extent of kinase auto-phosphorylation, which provides a cellular readout of kinase activity, was first analyzed. […] In particular, U266 cells were treated with atovaquone (15 μM) or JAK inhibitor 1(1 μM) for 1 hour, followed by lysis and immunoprecipitation to TYK2. The blot was probed with a pan-phospho-tyrosine antibody (FIG. 14A). Due to technical limitations, tyrosine phosphorylation of other JAK family members was not detected in U266 cells. Next, HEL cells were treated with atovaquone (20 μM) or JAK inhibitor 1 (1 μM) for 6 hours, followed by lysis and immunoprecipitation to JAK2, which was selected because these cells harbor mutant JAK2-V617F. The blot was probed with a pan-phospho-tyrosine antibody, as well as antibodies specific to phospho-Tyr570 and phospho-Tyr1007/1008 (FIG. 14B). […]

Assay [3] deals with gp130 mRNA. Nature of the assay: gp130 mRNA expression (qRT-PCR). The format is cell-based. As to conditions: MEF, MDA-MB, SKBR3, U266; 25 μM, 12 hours. The protocol: Total RNA was reverse transcribed using random hexamers and assayed by qRT-PCR as previously described (see, Grivennikov S I, Greten F R, & Karin M (2010) Immunity, inflammation, and cancer. Cell 140(6):883-899).
MEF, MDA-MB-468, and SKBR3 cells were treated with atovaquone (25 μM) for 6 or 12 hours, then analyzed by Western blot for expression of gp130 and various other receptors. […] In contrast, levels of other receptors—such as PDGFR-β, EGFR, HER2, and IGF1R-β—were not affected, again indicating a specific effect on gp130. […] In summary, atovaquone rapidly induces specific loss of cell-surface gp130, while total gp130 declines secondarily due to protein degradation.
For orientation: In qPCR the cycle at which signal appears reflects the starting amount.

Assay [4] relates to U266 human multiple myeloma cells. In words: U266 multiple myeloma xenograft in NSG mice. As to conditions: 200 mg/kg daily by oral gavage. The format is in vivo. The protocol:
Female NSG mice (obtained from The Jackson Laboratory, Bar Harbor, Me.) were injected subcutaneously with 5×10^6 U266 cells in 30% Matrigel, and tumors were allowed to grow to a volume of approximately 100 mm^3. At that point, animals were treated daily by oral gavage with either vehicle (5% benzyl alcohol in water), generic atovaquone, or Mepron® brand atovaquone (GlaxoSmithKline LLC, Philadelphia, Pa.) at a dose of 200 mg/kg.

As to `O=C1C(O)=C([C@H]2CC[C@H](c3ccc(Cl)cc3)CC2)C(=O)c2ccccc21` [atovaquone, trans-2-[4-(4-chlorophenyl)cyclohexyl]-3-hydroxy-1,4-naphthalenedione], the “apoptosis (annexin V and PI staining)” value in assay [1] was “inducing apoptotic cell death”. The “in vitro kinase activity” value in assay [2] is on record as “no inhibition”. The “gp130 mRNA expression” value in assay [3] is listed as “not significantly changed”. Moreover, the “median survival of the treated animals” value in assay [4] was “increase in the median survival”. Moreover, the tumor growth rate result in assay [4] (from tumor volume approximately 100 mm^3) is “prominent decrease in the growth rate”.

(Values after patent US10130590B2, “Methods of treating cancer with atovaquone-related compounds” (DANA-FARBER CANCER INSTITUTE, INC., priority 2013, dated 2018).)
